Assay results from patent US20110201628A1, “HETEROCYCLIC JAK KINASE INHIBITORS” (priority 2008, published 2011).

Each molecule was assayed against T1, N-terminal GST-tagged, recombinant, human JAK2 (amino acids 831-1132) (Homo sapiens, UniProt O60674) (assay: JAK2 mobility shift assay on Caliper LC3000 (Method 2)). Conditions: 0.3 nM JAK2 enzyme, 5 mM ATP, 1.5 μM SRCtide, 90 minutes room temperature.
T1 construct: human JAK2 (amino acids 831-1132, PLAZA database pAZB0359); GST (N); host or cells: insect cells
Format: biochemical
Protocol: Janus kinase 2 (JAK2) activity was also determined by measuring the kinase's ability to phosphorylate a tyrosine residue within a peptide substrate using a mobility shift assay on a Caliper LC3000 reader (Caliper, Hopkinton, Mass.), which measures fluorescence of the phosphorylated and unphosphorylated substrate and calculates a ratiometric value to determine percent turnover.
To measure JAK2 kinase activity, an in-house purified enzyme was used. […] After incubation of the kinase with a FAM labeled SRCtide substrate, adenosine triphosphate (ATP), and MgCl2 for 90 minutes at room temperature, the kinase reaction was stopped by the addition of 36 mM ethylenediaminetetraacetic acid (EDTA). The reaction was performed in 384 well microtitre plates and the reaction products were detected using the Caliper LC3000 Reader.

T1 sequence (O60674 831-1132): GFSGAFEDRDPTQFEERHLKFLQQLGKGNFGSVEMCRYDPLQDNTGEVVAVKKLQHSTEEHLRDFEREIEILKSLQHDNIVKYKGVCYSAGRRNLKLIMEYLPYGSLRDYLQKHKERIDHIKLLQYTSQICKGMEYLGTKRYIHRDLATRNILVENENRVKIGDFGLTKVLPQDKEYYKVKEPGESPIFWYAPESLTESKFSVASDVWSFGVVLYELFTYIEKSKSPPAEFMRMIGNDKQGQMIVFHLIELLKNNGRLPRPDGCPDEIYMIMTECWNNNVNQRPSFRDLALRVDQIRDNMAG

| Structure (SMILES) | IC50 |
| --- | --- |
| COc1cnc(C(C)Nc2nc(Nc3cn(C)cn3)c3cc[nH]c3n2)nc1 (single isomer, unassigned) [Example 27(a), N^2-[1-(5-Methoxypyrimidin-2-yl)ethyl]-N^4-(1-methyl-1H-imidazol-4-yl)-7H-pyrrolo[2,3-d]pyrimidine-2,4-diamine] | 17.6 µM |
| CC(Nc1nc(Nc2cn(C)cn2)c2ccn(CCF)c2n1)c1ncc(F)cn1 (single isomer, unassigned) [Example 22(a), 7-(2-Fluoroethyl)-N^2-[1-(5-fluoropyrimidin-2-yl)ethyl]-N^4-(1-methyl-1H-imidazol-4-yl)-7H-pyrrolo[2,3-d]pyrimidine-2,4-diamine] | 2.32 µM |
| CC(Nc1nc(Nc2cn(C)cn2)c2cc(F)cnc2n1)c1ncc(F)cc1F (single isomer, unassigned) [Example 31(a), N^2-[1-(3,5-Difluoropyridin-2-yl)ethyl]-6-fluoro-N^4-(1-methyl-1H-imidazol-4-yl)pyrido[2,3-d]pyrimidine-2,4-diamine] | 0.08 µM |

Now from value to molecule:

| IC50 | Structure (SMILES) |
| --- | --- |
| 0.013 µM | Cc1cc2c(Nc3cn(C)cn3)nc(N[C@@H](C)c3ncc(F)cn3)nc2[nH]1 [Example 20, N^2-[(1S)-1-(5-Fluoropyrimidin-2-yl)ethyl]-6-methyl-N^4-(1-methyl-1H-imidazol-4-yl)-7H-pyrrolo[2,3-d]pyrimidine-2,4-diamine] |
| 0.047 µM | C[C@H](Nc1nc(Nc2cn(C)cn2)c2ccc(O)nc2n1)c1ncc(F)cn1 [Example 34, 2-{[(1S)-1-(5-Fluoropyrimidin-2-yl)ethyl]amino}-4-[(1-methyl-1H-imidazol-4-yl)amino]pyrido[2,3-d]pyrimidin-7-ol] |

Each molecule was assayed against T2, C-terminal His6-tagged, recombinant, human JAK2, amino acids 808-end (Homo sapiens, UniProt O60674) (assay: JAK2 kinase Alphascreen assay (Method 1)). Conditions: Alphascreen, 150 pM JAK2 enzyme, 5 mM ATP, 80 nM Tyk2 peptide, 60 minutes room temperature; read-out: IC50 Assay (Method 1).
T2 construct: His6 (C); purchased Upstate Biotechnology MA; host or cells: baculovirus in Sf21 cells
Format: biochemical
Protocol: To measure JAK2 kinase activity, a commercially available purified enzyme may be used. […] After incubation of the kinase with a biotinylated substrate and adenosine triphosphate (ATP) for 60 minutes at room temperature, the kinase reaction may be stopped by the addition of 30 mM ethylenediaminetetraacetic acid (EDTA). The reaction may be performed in 384 well microtitre plates and the reaction products may be detected with the addition of streptavidin coated Donor Beads and phosphotyrosine-specific antibodies coated Acceptor Beads using the EnVision Multilabel Plate Reader after an overnight incubation at room temperature. “Tween 20” is a registered trademark of ICI Americas, Inc.

T2 sequence (O60674 808-1132 limits assumed): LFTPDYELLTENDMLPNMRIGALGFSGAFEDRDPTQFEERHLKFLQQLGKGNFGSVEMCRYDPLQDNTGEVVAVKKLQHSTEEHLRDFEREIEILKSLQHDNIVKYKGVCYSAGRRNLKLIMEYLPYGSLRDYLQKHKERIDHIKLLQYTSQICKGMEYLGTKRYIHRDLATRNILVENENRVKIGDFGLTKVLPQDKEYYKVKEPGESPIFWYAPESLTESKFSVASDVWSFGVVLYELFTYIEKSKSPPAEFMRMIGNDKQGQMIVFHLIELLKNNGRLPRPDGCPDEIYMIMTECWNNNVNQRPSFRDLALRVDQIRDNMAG

| Structure (SMILES) | IC50 |
| --- | --- |
| Cc1nc2c(Nc3cn(C)cn3)nc(NC(C)c3ncc(F)cn3)nc2s1 (single isomer, unassigned) [Example 7(a), N^5-[1-(5-Fluoropyrimidin-2-yl)ethyl]-2-methyl-N^7-(1-methyl-1H-imidazol-4-yl)[1,3]thiazolo[5,4-d]pyrimidine-5,7-diamine] | 0.57 µM |
| CC(Nc1nc(Nc2cn(C)cn2)c2cnn(C)c2n1)c1ncc(F)cc1F (single isomer, unassigned) [Example 14(a), N^6-[1-(3,5-Difluoropyridin-2-yl)ethyl]-1-methyl-N^4-(1-methyl-1H-imidazol-4-yl)-1H-pyrazolo[3,4-d]pyrimidine-4,6-diamine] | 5.4 µM |
| CC(Nc1nc(Nc2cn(C)cn2)c2ccc(O)nc2n1)c1ncc(F)cc1F (racemic) [Example 35, 2-{[1-(3,5-Difluoropyridin-2-yl)ethyl]amino}-4-[(1-methyl-1H-imidazol-4-yl)amino]pyrido[2,3-d]pyrimidin-7-ol] | 0.003 µM |
| C[C@H](Nc1nc2c(c(Nc3cn(C)cn3)n1)CCC2)c1ncc(F)cn1 [Example 8, N^2-[(1S)-1-(5-Fluoropyrimidin-2-yl)ethyl]-N^4-(1-methyl-1H-imidazol-4-yl)-6,7-dihydro-5H-cyclopenta[d]pyrimidine-2,4-diamine] | 0.016 µM |
| CC(Nc1nc2c(c(Nc3cn(C)cn3)n1)CCC2)c1ncc(F)cn1 (single isomer, unassigned) [Example 8(a), N^2-[1-(5-Fluoropyrimidin-2-yl)ethyl]-N^4-(1-methyl-1H-imidazol-4-yl)-6,7-dihydro-5H-cyclopenta[d]pyrimidine-2,4-diamine] | 20 µM |
| CC(Nc1nc(Nc2cn(C)cn2)c2cc(F)cnc2n1)c1ncc(F)cn1 (single isomer, unassigned) [Example 38(a), 6-Fluoro-N^2-[1-(5-fluoropyrimidin-2-yl)ethyl]-N^4-(1-methyl-1H-imidazol-4-yl)pyrido[2,3-d]pyrimidine-2,4-diamine] | 0.1 µM |
| Cc1nc2c(Nc3cn(C)cn3)nc(N[C@@H](C)c3ncc(F)cn3)nc2s1 [Example 7, N^5-[(1S)-1-(5-Fluoropyrimidin-2-yl)ethyl]-2-methyl-N^7-(1-methyl-1H-imidazol-4-yl)[1,3]thiazolo[5,4-d]pyrimidine-5,7-diamine] | 1.9 µM |
| CC(Nc1nc2c(c(Nc3cn(C)cn3)n1)CNCC2)c1ncc(F)cn1 (single isomer, unassigned) [17(b), N^2-[1-(5-Fluoropyrimidin-2-yl)ethyl]-N^4-(1-methyl-1H-imidazol-4-yl)-5,6,7,8-tetrahydropyrido[4,3-d]pyrimidine-2,4-diamine] | 2 µM |
| CC(Nc1nc(Nc2cn(C)cn2)c2ccncc2n1)c1ncc(F)cc1F (single isomer, unassigned) [Example 43(b), N^2-[1-(3,5-Difluoropyridin-2-yl)ethyl]-N^4-(1-methyl-1H-imidazol-4-yl)pyrido[3,4-d]pyrimidine-2,4-diamine] | 1.18 µM |
| CC(Nc1nc(Nc2cn(C)cn2)c2cnn(C)c2n1)c1ncc(F)cc1F (single isomer, unassigned) [Example 14(b), N^6-[1-(3,5-Difluoropyridin-2-yl)ethyl]-1-methyl-N^4-(1-methyl-1H-imidazol-4-yl)-1H-pyrazolo[3,4-d]pyrimidine-4,6-diamine] | < 0.003 µM |
| COc1ccc2nc(N[C@@H](C)c3ncc(F)cn3)nc(Nc3cn(C)cn3)c2c1 [Example 28, N^2-[(1S)-1-(5-Fluoropyrimidin-2-yl)ethyl]-6-methoxy-N^4-(1-methyl-1H-imidazol-4-yl)quinazoline-2,4-diamine] | 0.67 µM |
| Cc1nc2c(Nc3cn(C)cn3)nc(NC(C)c3ncc(F)cn3)nc2s1 (single isomer, unassigned) [Example 7(b), N^5-[1-(5-Fluoropyrimidin-2-yl)ethyl]-2-methyl-N^7-(1-meth 1-1H-imidazol-4-yl)[1,3]thiazolo[5,4-d]pyrimidine-5,7-diamine] | 21.6 µM |
| CC(Nc1nc(Nc2cn(C)cn2)c2cccnc2n1)c1ncc(F)cc1F (single isomer, unassigned) [Example 12(b), N^2-[1-(3,5-Difluoropyridin-2-yl)ethyl]-N^4-(1-methyl-1H-imidazol-4-yl)pyrido[2,3-d]pyrimidine-2,4-diamine] | 0.47 µM |

Continued, values first:

| IC50 | Structure (SMILES) |
| --- | --- |
| 6.4 µM | CC(Nc1nc(Nc2cn(C)cn2)c2nccnc2n1)c1ncc(F)cn1 (single isomer, unassigned) [Example 10(a), N^2-[1-(5-Fluoropyrimidin-2-yl)ethyl]-N^4-(1-methyl-1H-imidazol-4-yl)pteridine-2,4-diamine] |
| < 0.003 µM | CC(Nc1nc(Nc2cn(C)cn2)c2cnn(C)c2n1)c1ncc(F)cn1 (single isomer, unassigned) [Example 11(b), N^6-[1-(5-Fluoropyrimidin-2-yl)ethyl]1-methyl-N^4-(1-methyl-1H-imidazol-4-yl)-1H-pyrazolo[3,4-d]pyrimidine-4,6-diamine] |
| < 0.003 µM | CC(Nc1nc(Nc2cn(C)cn2)c2ccn(C)c2n1)c1ncc(F)cn1 (single isomer, unassigned) [Example 23(a), N^2-[1-(5-Fluoropyrimidin-2-yl)ethyl]-7-methyl-N^4-(1-methyl-1H-imidazol-4-yl)-7H-pyrrolo[2,3-d]pyrimidine-2,4-diamine] |
| 6.4 µM | CC(Nc1nc(Nc2cn(C)cn2)c2cnn(C)c2n1)c1ncc(F)cn1 (single isomer, unassigned) [Example 11(a), N^6-[1-(5-Fluoropyrimidin-2-yl)ethyl]-1-methyl-N^4-(1-methyl-1H-imidazol-4-yl)-1H-pyrazolo[3,4-d]pyrimidine-4,6-diamine] |
| < 0.003 µM | C[C@H](Nc1nc(Nc2cn(C)cn2)c2cccnc2n1)c1ncc(F)cn1 [Example 16, N^2-[(1S)-1-(5-Fluoropyrimidin-2-yl)ethyl]-N^4-(1-methyl-1H-imidazol-4-yl)pyrido[2,3-d]pyrimidine-2,4-diamine] |
| 0.003 µM | CC(Nc1nc(Nc2cn(C)cn2)c2ccc(Cl)nc2n1)c1ncc(F)cc1F (racemic) [Example 44, 7-Chloro-N^2-[1-(3,5-difluoropyridin-2-yl)ethyl]-N^4-(1-methyl-1H-imidazol-4-yl)pyrido[2,3-d]pyrimidine-2,4-diamine] |
| 28.8 µM | CC(Nc1nc(Nc2cn(C)cn2)c2ccsc2n1)c1ncc(F)cn1 (single isomer, unassigned) [Example 1(a), N^2-[1-(5-Fluoropyrimidin-2-yl)ethyl]-N^4-(1-methyl-1H-imidazol-4-yl)thieno[2,3-d]pyrimidine-2,4-diamine] |
| < 0.003 µM | C[C@H](Nc1nc(Nc2cn(C)cn2)c2ccc(Cl)nc2n1)c1ncc(F)cn1 [Example 42, 7-Chloro-N^2-[(1S)-1-(5-fluoropyrimidin-2-yl)ethyl]-N^4-(1-methyl-1H-imidazol-4-yl)pyrido[2,3-d]pyrimidine-2,4-diamine] |
| 0.004 µM | COc1ccc2c(Nc3cn(C)cn3)nc(N[C@@H](C)c3ncc(F)cn3)nc2c1 [Example 30, N^2-[(1S)-1-(5-Fluoropyrimidin-2-yl)ethyl]-7-methoxy-N^4-(1-methyl-1H-imidazol-4-yl)quinazoline-2,4-diamine] |
